Counter-ions that a name gives are not always drawn. Like-named read-outs stand apart in the source and are kept apart here.
Columns and labels:
adrenergic receptor α1A = target: T1, adrenergic receptor α1A (Rattus norvegicus, UniProt P43140); assay: Radioligand binding to adrenergic receptor α1A ([3H] Prazosin, rat submaxillary gland membranes); details: for α-Adrenoceptor, % inhibition α1A: 10 µM ligand
T1 construct: membrane species from rat submaxillary glands (rat of Wistar breed) are prepared; from tissue; host or cells: rat (Wistar) submaxillary gland
T1 sequence (P43140 1-466): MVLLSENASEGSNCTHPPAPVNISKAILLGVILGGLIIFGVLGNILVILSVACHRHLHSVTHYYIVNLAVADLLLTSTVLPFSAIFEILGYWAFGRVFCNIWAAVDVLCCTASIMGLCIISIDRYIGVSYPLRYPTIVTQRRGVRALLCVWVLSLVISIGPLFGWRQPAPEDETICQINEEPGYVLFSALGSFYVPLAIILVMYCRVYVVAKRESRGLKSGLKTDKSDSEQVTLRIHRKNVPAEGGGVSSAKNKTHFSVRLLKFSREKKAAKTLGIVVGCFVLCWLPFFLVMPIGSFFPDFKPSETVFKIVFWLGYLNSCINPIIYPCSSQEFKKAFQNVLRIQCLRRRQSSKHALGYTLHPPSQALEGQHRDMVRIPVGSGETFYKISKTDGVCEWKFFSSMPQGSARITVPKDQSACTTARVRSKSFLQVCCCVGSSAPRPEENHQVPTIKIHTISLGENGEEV
Experimental: Determination of investigated compounds' binding to α1A receptor was carried out according to the method described in [Michel AD, Loury DN and Whiting R1. Identification of a single α1A-adrenoceptor corresponding to the α1A-subtype in rat submaxillary gland. […] Prazosin is used as positive control.

adrenergic receptor α1B = target: T2, adrenergic receptor α1B (Rattus norvegicus, UniProt P15823); assay: Radioligand binding to adrenergic receptor α1B ([3H] Prazosin, rat liver membranes); details: for α-Adrenoceptor, % inhibition α1B: 10 µM ligand
T2 construct: membrane species from rat liver (rat of Wistar breed) are prepared; from tissue; host or cells: rat (Wistar) liver
T2 sequence (P15823 1-515): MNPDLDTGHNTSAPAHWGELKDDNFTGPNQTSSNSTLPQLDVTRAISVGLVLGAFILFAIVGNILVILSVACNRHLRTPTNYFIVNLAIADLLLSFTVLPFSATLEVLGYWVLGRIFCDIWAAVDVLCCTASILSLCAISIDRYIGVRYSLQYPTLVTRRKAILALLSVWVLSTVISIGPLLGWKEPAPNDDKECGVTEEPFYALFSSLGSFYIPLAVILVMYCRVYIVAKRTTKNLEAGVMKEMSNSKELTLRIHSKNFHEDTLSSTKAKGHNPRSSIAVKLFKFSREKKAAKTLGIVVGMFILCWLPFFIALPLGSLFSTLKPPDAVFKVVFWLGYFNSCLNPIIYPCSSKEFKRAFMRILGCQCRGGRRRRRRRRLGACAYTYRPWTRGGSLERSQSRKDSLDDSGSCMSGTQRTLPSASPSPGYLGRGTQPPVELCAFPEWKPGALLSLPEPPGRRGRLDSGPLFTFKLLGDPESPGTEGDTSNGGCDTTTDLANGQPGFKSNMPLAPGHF
Text: Species heterogeneity of hepatic α1A-, α1B-, and α1C-subtypes. Biochem Biophys Res Commun. […] Prazosin is used as positive control.

human α1D receptor = target: T3, human α1D receptor (Homo sapiens, UniProt P25100); assay: Radioligand binding to adrenergic receptor α1D ([3H] Prazosin, HEK-293 membranes); details: for α-Adrenoceptor, % inhibition α1D: 10 µM ligand; for inhibition at 10 µM: read-out: α-Adrenoceptor, % inhibition α1D
T3 construct: expressed in transfected cells; host or cells: HEK-293
T3 sequence (P25100 1-572): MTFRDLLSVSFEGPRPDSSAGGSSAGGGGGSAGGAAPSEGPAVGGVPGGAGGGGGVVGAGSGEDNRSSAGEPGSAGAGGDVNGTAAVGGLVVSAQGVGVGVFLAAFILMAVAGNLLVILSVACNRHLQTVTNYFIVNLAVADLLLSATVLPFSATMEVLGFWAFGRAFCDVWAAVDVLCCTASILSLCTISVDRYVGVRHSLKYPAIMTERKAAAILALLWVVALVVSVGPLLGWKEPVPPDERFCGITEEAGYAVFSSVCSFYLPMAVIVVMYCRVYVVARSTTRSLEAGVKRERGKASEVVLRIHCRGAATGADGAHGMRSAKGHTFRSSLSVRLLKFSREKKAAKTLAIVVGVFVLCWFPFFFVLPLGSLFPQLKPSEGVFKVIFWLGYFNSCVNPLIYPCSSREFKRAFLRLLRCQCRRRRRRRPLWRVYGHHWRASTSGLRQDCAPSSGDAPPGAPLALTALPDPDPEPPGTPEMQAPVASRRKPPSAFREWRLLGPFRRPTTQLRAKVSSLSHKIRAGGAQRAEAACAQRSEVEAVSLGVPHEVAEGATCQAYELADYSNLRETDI
Text: 6-C. […] For this purpose sDNA of human α1D receptor is expressed in HEK-293 cells, as it was described in [TL Theroux, TA Esbenshade, RD Peavy and KP Minneman. Coupling efficiencies of human alpha 1-adrenergic receptor subtypes: titration of receptor density and responsiveness with inducible and repressible expression vectors. Mol Pharmacol.; 50: 1376-1387, 1996]. […] Characterization of an α1D-adrenoceptor mediating the contractile response of rat aorta to noradrenaline. […] Prazosin is used as positive control.

human α2A receptor = target: T4, human α2A receptor (Homo sapiens, UniProt P08913); assay: Radioligand binding to adrenergic receptor α2A ([3H] MK-912, Sf9 membranes)
T4 construct: expressed in transfected cells; host or cells: Sf9
T4 sequence (P08913 1-465): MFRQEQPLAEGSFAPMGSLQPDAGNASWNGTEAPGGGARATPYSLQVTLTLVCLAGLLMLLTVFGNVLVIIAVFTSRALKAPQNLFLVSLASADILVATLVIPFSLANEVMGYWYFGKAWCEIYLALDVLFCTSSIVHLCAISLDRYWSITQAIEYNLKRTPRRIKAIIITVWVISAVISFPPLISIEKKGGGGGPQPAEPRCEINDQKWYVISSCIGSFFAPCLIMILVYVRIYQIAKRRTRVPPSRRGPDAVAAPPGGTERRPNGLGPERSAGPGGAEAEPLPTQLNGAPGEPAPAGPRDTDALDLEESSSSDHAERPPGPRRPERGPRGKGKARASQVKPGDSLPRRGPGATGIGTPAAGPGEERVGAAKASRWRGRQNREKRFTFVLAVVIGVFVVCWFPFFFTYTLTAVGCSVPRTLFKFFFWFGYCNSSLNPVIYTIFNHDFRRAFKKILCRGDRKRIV
Text: For this purpose sDNA of human α2A receptor is expressed in Sf9 cells, as described in [Uhlen S, Porter AC and Neubig RR. […] J Pharmacol ExpTher. […] J Pharmacol ExpTher. […] Yohimbine is used as positive control.

imidazoline receptor I2 = assay: Radioligand binding to imidazoline receptor I2 ([3H] Idazoxan, rat brain membranes); details: 10 µM ligand
Experimental: For this purpose membrane species are prepared from rat (Wistar) brain homogenates by homogenization of them in glass homogenizer with the subsequent separation of plasmatic membranes from cell nuclei, mitochondrias and cell wreckages by differential centrifugation. […] After incubation the samples are filtered in vacuo on glass-microfiber filters G/F (Millipor, USA), filters are washed three times with cold solution of medium and radioactivity is measured by scintillation counter MicroBeta 340 (Perkin Elmer, USA). […] Idazoxan is used as positive control.
The tested compounds' binding to the receptor is determined by their ability to displace the radioligand and expressed in percent of displacement (%I). Values of %I are calculated according to the following equation: %I = (TA-CA)/(TA-NA)*100, [formula] wherein: TA - is the overall radioactivity in the presence of radioligand only, CA - is the radioactivity in the presence of radioligand and tested compound and NA - is a radioactivity in the presence of radioligand and Idazoxan (1 µM).

human H2 receptor = target: T5, human H2 receptor (Homo sapiens, UniProt P25021); assay: Radioligand binding to histamine receptor H2 ([125I] Aminopotentidine, CHO-K1 membranes); details: for inhibition at 10 µM: read-out: Histamine receptors, % inhibition H2
T5 construct: expressed in transfected cells; host or cells: CHO-K1
Text: Proc Natl Acad Sci USA. 87(5): 1658-1662, 1990]. […] Proc Natl Acad Sci USA. 87(5): 1658-1662, 1990]. […] Tiotidine is used as positive control.

[1] = target: T6, recombinant human 5-HT2C receptor (Homo sapiens, UniProt P28335); assay: Radioligand binding to serotonin receptor 5-HT2C ([3H] Mesulergine, CHO-K1 membranes); details: read-out: 5-HT2C % inhibition
T6 construct: expressed in transfected cells; host or cells: CHO-K1
T6 sequence (P28335 33-458): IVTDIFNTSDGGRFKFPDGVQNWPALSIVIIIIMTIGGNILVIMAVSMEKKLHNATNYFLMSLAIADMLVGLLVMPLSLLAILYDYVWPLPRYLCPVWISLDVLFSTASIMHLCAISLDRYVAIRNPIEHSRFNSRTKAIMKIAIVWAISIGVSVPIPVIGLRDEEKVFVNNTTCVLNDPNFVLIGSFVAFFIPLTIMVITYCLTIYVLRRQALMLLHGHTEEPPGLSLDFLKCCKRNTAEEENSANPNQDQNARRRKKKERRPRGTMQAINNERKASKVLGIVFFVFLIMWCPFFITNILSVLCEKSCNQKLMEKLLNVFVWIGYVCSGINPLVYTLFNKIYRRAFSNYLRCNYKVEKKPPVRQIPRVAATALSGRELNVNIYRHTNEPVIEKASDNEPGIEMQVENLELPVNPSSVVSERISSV
Text: J Neurochem. 69: 1449 - 1458, 1997]. […] SB242084 is used as positive control.

[2] = target: T7, recombinant human 5-HT6 receptor (Homo sapiens, UniProt P50406); assay: Radioligand binding to serotonin receptor 5-HT6 ([3H] Lysergic acid diethylamide, HeLa membranes); details: for inhibition at 1 µM: read-out: 5-HT6 % inhibition
T7 construct: expressed in transfected cells; host or cells: HeLa
Text: Mol Pharmacol. 43:320-327, 1993]. […] Methiothepin is used as positive control.

human H1 receptor = target: T8, human H1 receptor (Homo sapiens, UniProt P35367); assay: Radioligand binding to histamine receptor H1 ([3H] Pyrilamine, CHO-K1 membranes)
T8 construct: expressed in transfected cells; host or cells: CHO-K1
Text: Biochem Biophys Res Comm. 197(3): 1601-1608, 1993]. […] Biochem Biophys Res Comm. 197(3): 1601-1608, 1993].
Pyrilamine is used as positive control.

[3] = target: T9, recombinant human 5-HT2A receptor (Homo sapiens, UniProt P28223); assay: Radioligand binding to serotonin receptor 5-HT2A ([3H] Ketanserin, CHO-K1 membranes)
T9 construct: expressed in transfected cells; host or cells: CHO-K1
Text: 9-C. […] J Neurochem. […] Ketanserin is used as positive control.

[4] = target: T10, recombinant human 5-HT2B receptor (Homo sapiens, UniProt P41595); assay: Radioligand binding to serotonin receptor 5-HT2B ([3H] Lysergic acid diethylamide, CHO-K1 membranes)
T10 construct: expressed in transfected cells; host or cells: CHO-K1
Experimental: For this purpose membrane species are prepared from CHO-K1 cells comprising recombinant human 5-HT2B receptor by homogenization of recombinant cells in glass homogenizer with the subsequent separation of plasmatic membranes from cell nuclei, mitochondrias and cell wreckages by differential centrifugation. […] After incubation the samples are filtered in vacuo on glass-microfiber filters G/F (Millipor, USA), filters are washed three times with cold solution of medium and radioactivity is measured by scintillation counter MicroBeta 340 (Perkin Elmer, USA). […] Ketanserin is used as positive control. The tested compounds' binding to the receptor is determined by their ability to displace the radioligand and is expressed in percent of displacement (%I). Values of %I are calculated according to the following equation: %I = (TA-CA)/(TA-NA)*100, [formula] wherein: TA - is the overall radioactivity in the presence of radioligand only, CA - is the radioactivity in the presence of radioligand and tested compound and NA - is the radioactivity in the presence of radioligand and Serotonin (10 µM).

male mice of BALB/c line = assay: Passive Avoidance of mice in the Shuttle Chamber, memory disturbed by Scopolamine; assay type: in vivo; details: Scopolamine 0.3 mg/kg, injected 30 minutes before training; figures 1-3
Experimental: Example 14. […] A shuttle chamber (Ugo Basile, Italy) consisted of two sections was used. […] The sections were connected through a hole which could be overlapped by a vertical door. The floor was made of transverse metal bars on which DC current impulses could be fed. Experiments were carried out in aged male mice of BALB/c line weighing 20-24 grams.
Each group consisted of at least 8 animals. Animal was placed in light section, and latent period of the first entry into dark chamber was registered. Then the vertical door was closed and the animal was punished by 0.6 mA DC current for 3 seconds. After that it was taken back to its homecage. In 22-24 hours the same animal was placed again in light section of the shuttle chamber and latent period of its first entry into dark section, the total time of its stay in light section, and the number of entries into dark section, were registered. Each monitoring lasted for 5 minutes.
Testing was carried out during the day time in isolated laboratory using white noise at level of about 70 decibel above human hearing threshold.
Scopolamine causes the disturbance of training (memory loss) that results in […].

T5 sequence (P25021 whole entry): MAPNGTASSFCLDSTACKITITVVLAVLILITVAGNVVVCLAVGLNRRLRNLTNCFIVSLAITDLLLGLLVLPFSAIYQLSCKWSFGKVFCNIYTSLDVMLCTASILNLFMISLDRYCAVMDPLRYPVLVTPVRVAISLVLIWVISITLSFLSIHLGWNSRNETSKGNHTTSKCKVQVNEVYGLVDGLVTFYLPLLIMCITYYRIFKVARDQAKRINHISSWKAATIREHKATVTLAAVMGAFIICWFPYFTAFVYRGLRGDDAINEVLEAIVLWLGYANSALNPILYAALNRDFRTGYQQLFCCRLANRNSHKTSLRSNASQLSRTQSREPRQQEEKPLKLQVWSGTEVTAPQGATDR
T7 sequence (P50406 whole entry): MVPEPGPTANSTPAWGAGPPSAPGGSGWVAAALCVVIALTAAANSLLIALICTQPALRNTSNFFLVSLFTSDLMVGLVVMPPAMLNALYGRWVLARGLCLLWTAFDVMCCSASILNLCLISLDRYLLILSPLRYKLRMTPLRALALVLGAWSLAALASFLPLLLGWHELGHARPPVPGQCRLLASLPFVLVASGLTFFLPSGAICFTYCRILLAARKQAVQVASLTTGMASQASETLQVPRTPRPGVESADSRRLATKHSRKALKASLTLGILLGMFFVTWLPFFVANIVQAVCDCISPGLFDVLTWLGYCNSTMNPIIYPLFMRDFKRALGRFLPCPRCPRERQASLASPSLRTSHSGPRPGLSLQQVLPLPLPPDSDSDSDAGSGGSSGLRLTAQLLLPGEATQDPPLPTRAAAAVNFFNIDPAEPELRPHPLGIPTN
T9 sequence (P28223 whole entry): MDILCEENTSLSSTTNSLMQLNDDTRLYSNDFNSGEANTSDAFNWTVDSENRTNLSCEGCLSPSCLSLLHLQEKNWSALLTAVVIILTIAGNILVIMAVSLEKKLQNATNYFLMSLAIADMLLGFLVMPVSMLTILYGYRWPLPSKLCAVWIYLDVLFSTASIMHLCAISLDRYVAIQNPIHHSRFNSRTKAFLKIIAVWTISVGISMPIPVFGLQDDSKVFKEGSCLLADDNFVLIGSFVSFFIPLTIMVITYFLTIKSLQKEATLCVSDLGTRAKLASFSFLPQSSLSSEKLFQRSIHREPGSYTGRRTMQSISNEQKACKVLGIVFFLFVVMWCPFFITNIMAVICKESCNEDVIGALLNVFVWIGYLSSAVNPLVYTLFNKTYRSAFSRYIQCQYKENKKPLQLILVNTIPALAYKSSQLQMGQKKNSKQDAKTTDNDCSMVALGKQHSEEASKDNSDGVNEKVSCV
T8 sequence (P35367 whole entry): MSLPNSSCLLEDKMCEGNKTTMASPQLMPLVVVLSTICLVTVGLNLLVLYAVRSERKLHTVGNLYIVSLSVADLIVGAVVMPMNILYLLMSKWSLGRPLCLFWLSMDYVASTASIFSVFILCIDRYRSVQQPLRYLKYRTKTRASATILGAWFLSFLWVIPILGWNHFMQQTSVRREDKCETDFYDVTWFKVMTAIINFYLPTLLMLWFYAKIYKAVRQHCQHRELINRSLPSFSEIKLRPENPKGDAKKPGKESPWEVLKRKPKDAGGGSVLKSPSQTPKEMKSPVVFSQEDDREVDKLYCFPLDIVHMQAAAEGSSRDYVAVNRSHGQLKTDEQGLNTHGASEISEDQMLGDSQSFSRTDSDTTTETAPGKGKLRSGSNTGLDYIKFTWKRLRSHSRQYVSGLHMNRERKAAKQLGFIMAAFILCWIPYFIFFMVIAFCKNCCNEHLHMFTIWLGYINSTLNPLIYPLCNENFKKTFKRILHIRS
T10 sequence (P41595 whole entry): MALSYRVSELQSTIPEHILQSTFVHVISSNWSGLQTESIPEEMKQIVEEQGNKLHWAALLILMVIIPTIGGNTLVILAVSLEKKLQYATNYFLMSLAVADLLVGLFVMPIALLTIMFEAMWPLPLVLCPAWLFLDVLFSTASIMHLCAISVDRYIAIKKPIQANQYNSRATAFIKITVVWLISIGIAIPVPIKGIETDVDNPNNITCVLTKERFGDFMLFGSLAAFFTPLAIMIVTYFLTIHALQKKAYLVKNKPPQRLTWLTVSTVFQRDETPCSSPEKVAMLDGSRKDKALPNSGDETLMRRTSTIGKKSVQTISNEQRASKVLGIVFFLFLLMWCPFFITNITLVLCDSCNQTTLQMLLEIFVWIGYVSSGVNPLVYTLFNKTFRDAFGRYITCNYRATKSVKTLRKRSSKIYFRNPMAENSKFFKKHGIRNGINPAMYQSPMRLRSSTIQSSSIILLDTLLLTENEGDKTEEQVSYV

## Cc1ccc2c(c1)c1c(n2CCc2ccc(C)nc2)CCCN(C)C1 [1.2.2(4-1)]
Adrenergic receptor α1A
  α-Adrenoceptor, % inhibition α1A: 80%
Adrenergic receptor α1B
  α-Adrenoceptor, % inhibition α1B: 85%
Human α1D receptor
  α-Adrenoceptor, % inhibition α1D: 68%
Human α2A receptor; 10 µM ligand
  α-Adrenoceptor, % inhibition α2A: 79%
Imidazoline receptor I2
  % inhibition: 80%

## Cc1ccc2c(c1)c1c(n2CCc2ccc(C)nc2)CCN(C)C1 [1.1.2(4-5)·1/2NDSA, 2,8-dimethyl-5-[2-(4-methylpyridin-3-yl)ethyl]-1,2,3,4-tetrahydro-1H-pyrido[4,3-b]indole naphtalene-1,5-disulfonate]
Human H2 receptor; 10 µM ligand, 10 µM
  Histamine receptors, % inhibition H2: 100%

## Cc1ccc2c(c1)c1c(n2CCc2cccnc2)CCCN(C)C1 [1.2.2(3-2)·2HCl]
Adrenergic receptor α1A; read-out: α-Adrenoceptor, % inhibition α1A
  inhibition at 10 µM: 61%
Adrenergic receptor α1B; read-out: α-Adrenoceptor, % inhibition α1B
  inhibition at 10 µM: 75%
Human α1D receptor
  inhibition at 10 µM: 60%
Human α2A receptor; read-out: α-Adrenoceptor, % inhibition α2A
  inhibition at 10 µM: 71%
[1]
  inhibition at 1 µM: 90%
[2]
  inhibition at 1 µM: 79%
Imidazoline receptor I2
  % inhibition: 63%

## Cc1ccc2c(c1)c1c(n2CCc2ccc(C)nc2)CCN(C)C1 [1.1.2(4-4)·2CH3SO3H, 2,8-dimethyl-5-[2-(4-methylpyridin-3-yl)ethyl]-1,2,3,4-tetrahydro-1H-pyrido[4,3-b]indole bis-methylsulfonate]
Human H1 receptor; 10 µM ligand, 10 µM
  Histamine receptors, % inhibition H1: 102%
Human H2 receptor; 10 µM ligand
  inhibition at 10 µM: 99%

## Cc1ccc2c(c1)c1c(n2CCc2ccncc2)CCCN(C)C1 [1.2.2(5-2)]
Adrenergic receptor α1A
  α-Adrenoceptor, % inhibition α1A: 74%
Adrenergic receptor α1B
  α-Adrenoceptor, % inhibition α1B: 89%
Human α1D receptor
  α-Adrenoceptor, % inhibition α1D: 68%
Imidazoline receptor I2
  % inhibition: 72%

## Cc1ccc(S(=O)(=O)n2c3c(c4cc(C)ccc42)CN(C)CCC3)cc1 [1.8.1(3)·HCl]
Human α1D receptor
  inhibition at 10 µM: 55%
Human H1 receptor; read-out: Histamine receptors, % inhibition H1, 10 µM ligand
  inhibition at 10 µM: 95%
Human H2 receptor
  inhibition at 10 µM: 82%
[3]; 5-HT2A
  nH: 1.01
[3]; ligand concentration 1 µM
  inhibition at 1 µM: 100%
[4]; 5-HT2B
  nH: 0.784
[4]; read-out: 5-HT2B % inhibition
  inhibition at 1 µM: 101%
[1]
  inhibition at 1 µM: 90%
[2]
  IC50: 535 nM
  Ki: 307 nM
  inhibition at 1 µM: 93%
[2]; 5-HT6
  nH: 1.07
[2]; last block of Table 11: receptor printed 5-HT6 in r18, cell blank in r19-r21
  nH: 0.665
Imidazoline receptor I2
  % inhibition: 17%

## COc1ccc2c(c1)c1c(n2CCc2ccccn2)CCN(C)C1 [1.1.2(2-4)·2HCl]
Male mice of BALB/c line
  enhancement of memory disturbed by Scopolamine: improve memory

Source: EP2236511A2, “LIGANDS OF ALPHA-ADRENOCEPTORS AND OF DOPAMINE, HISTAMINE, IMIDAZOLINE AND SEROTONIN RECEPTORS AND THE USE THEREOF” (priority 2007, dated 2009)
